In patent US20240270715A1, “INHIBITORS OF TRANSGLUTAMINASES” (ZEDIRA GMBH, priority 2021, published 2024):
Like-named read-outs stand apart in the source and are kept apart here.

Assays:
[1] = target: T1, recombinant human transglutaminase 2 (Homo sapiens, UniProt P21980); assay: Transglutaminase assay: incorporation of dansylcadaverine into dimethylcasein (DCC-assay); type: biochemical
T1 sequence (P21980 1-687): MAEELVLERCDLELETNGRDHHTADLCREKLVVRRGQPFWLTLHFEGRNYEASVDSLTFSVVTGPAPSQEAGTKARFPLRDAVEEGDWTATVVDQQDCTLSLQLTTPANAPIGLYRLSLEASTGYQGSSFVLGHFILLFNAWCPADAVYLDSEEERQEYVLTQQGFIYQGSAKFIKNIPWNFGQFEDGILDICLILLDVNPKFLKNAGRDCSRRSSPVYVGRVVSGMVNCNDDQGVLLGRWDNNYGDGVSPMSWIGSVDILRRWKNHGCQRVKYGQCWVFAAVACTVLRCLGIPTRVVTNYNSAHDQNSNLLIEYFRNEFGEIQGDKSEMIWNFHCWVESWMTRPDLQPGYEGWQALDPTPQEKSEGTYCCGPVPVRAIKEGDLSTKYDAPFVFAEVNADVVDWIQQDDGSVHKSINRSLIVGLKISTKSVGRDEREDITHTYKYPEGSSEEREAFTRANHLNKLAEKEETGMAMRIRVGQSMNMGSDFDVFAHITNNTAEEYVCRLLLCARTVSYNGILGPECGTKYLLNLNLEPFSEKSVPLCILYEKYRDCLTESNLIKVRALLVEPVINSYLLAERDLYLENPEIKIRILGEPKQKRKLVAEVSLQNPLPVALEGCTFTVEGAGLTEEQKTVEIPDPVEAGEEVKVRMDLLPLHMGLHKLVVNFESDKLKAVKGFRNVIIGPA
Procedure: To illustrate the advantage of branched alkyl moieties over aromatic moieties, we refer to reference compounds Ref. 2 (ZED1227, U.S. Pat. No. 9,434,763 B2) and Ref. 3 (A8, ZED1047). Inhibition data were determined using the classical fluorescent transamidation assay (dansylcadaverine incorporation into methylated casein, DCC-assay) as described [Büchold, C.; Hils, M.; Gerlach, U.; Weber, J.; Pelzer, C.; Heil, A.; Aeschlimann, D.; Pasternack, R. Features of ZED1227: The First-In-Class Tissue Transglutaminase Inhibitor Undergoing Clinical Evaluation for the Treatment of Celiac Disease. Cells 2022, 11, 1667. https://doi.org/10.3390/cells11101667]. Casein is one of the best known high molecular weight (24 kDa) protein substrates for transglutaminases. Please note, the IC50 value of Ref. 3 (A8) published in U.S. Pat. No. 9,434,763 B2 cannot be compared to the present data, relying on a fluorogenic isopeptidase assay.
To this extent, inhibition data were determined using the classical fluorescent transamidation assay (dansylcadaverine incorporation into methylated casein, DCC-assay) as described in Büchold et al. [Büchold, C.; Hils, M.; Gerlach, U.; Weber, J.; Pelzer, C.; Heil, A.; Aeschlimann, D.; Pasternack, R. Features of ZED1227: The First-In-Class Tissue Transglutaminase Inhibitor Undergoing Clinical Evaluation for the Treatment of Celiac Disease. Cells 2022, 11, 1667. https://doi.org/10.3390/cells11101667]. Casein is one of the best known high molecular weight (24 kDa) protein substrates for transglutaminases. Inhibition data of the inventive compounds was compared with inhibition of compounds disclosed in U.S. Pat. No. 9,434,763 B2, particularly, compound A8, which is denoted herein as Reference 3. It is noteworthy that the IC50 values of compounds A8 published in U.S. Pat. No. 9,434,763 B2 and E16 from U.S. Pat. No. 11,072,634 B2 cannot be compared to the present data, relying on a fluorogenic isopeptidase assay.
For the determination of potency of inhibitors against tissue transglutaminase, the incorporation of dansylcadaverine into dimethylcasein (Zedira product T036, Lorand et al., Anal Biochem, 1971, 44:221-31) was measured using recombinant human transglutaminase 2 (Zedira Product T022).
The tissue transglutaminase is diluted in buffer (50 mM Tris-HCl, 7.5 mM CaCl2, 150 mM NaCl, pH=7.4). The final concentration of TG2 in the assay is 10 nM.
A 10 mM inhibitor stock solution is prepared in DMSO, and from this a serial 1:2-fold dilution series is prepared also in DMSO. Each of the initial dilutions is subsequently diluted 1:50-fold with buffer (50 mM Tris-HCl, 7.5 mM CaCl2, 150 mM NaCl, pH=7.4) to yield the final working dilutions containing 2% (v/v) DMSO. 15 μl of inhibitor working dilution are added per well of a 96 well microtiter plate. As control, 15 μl of a 2% (v/v) DMSO solution prepared using the buffer mentioned above are added per well.
Immediately before starting the assay, 600 μl transglutaminase working solution are added to 11.4 ml assay buffer (50 mM Tris-HCl, 10 mM CaCl2, 10 mM glutathione, 2.5% glycerol, 16.7 μM dansylcadaverine, 4 μM N,N-dimethylcasein, 200 mM NaCl, pH=8.0). 285 μl of this reaction mix are added per well containing the inhibitor.
Increase in fluorescence is measured using λex=330 nm and λemG=500 nm at […] for 30 min. A slope of the increase in fluorescence between 20 and 30 min is calculated for determination of the IC50 value (inhibitor concentration at which 50% of the initial activity is blocked).
Analysis of enzymatic activity is performed by calculation of the slope of an increase in fluorescence intensity. IC50 values are calculated by plotting the enzymatic activity (as percentage from control containing 2% DMSO instead of inhibitor) against the inhibitor concentration. IC50 is defined as the inhibitor concentration blocking 50% of initial enzyme activity.

[2] = Caco-2 permeability assay (CacoReady kit); type: in vitro ADME; details: human
Procedure: Permeability coefficients (Papp values) were obtained from Caco-2 barrier studies predicting oral/intestinal bioavailability of the tested compounds. The assays were performed by using CacoReady™ ready-to-use kits from ReadyCell according to the manufacturers protocol.

[3] = Log D by shake flask method (octanol / PBS pH 7.4, HPLC); type: physicochemical; details: octanol / PBS pH 7.4, shake flask; read-out: logD
Procedure: In order to classify the inventive compounds according to their lipophilicity, Log D values (distribution coefficient) were determined by means of the well-established shake flask method, measuring the partition of a compound between an octanol and phosphate-buffered saline (PBS, pH 7.4) by HPLC.
Compounds with a moderate lipophilicity (Log D values from 0 to 3) are usually advantaged for oral absorption, being in balance between solubility and permeability. However, sophisticated formulation of a compound might improve oral bioavailability for highly lipophilic compounds.

[4] = recombinant human TG2 10 nM, dansylcadaverine/dimethylcasein, read-out: IC50 TG2

| Compound | IC50 [1, 4] [nM] | Papp [2] [×10⁻⁶ cm/s] | logD [3] | IC50 ([1]; DCC-assay, values in text, read-out: IC50) [nM] | fold more potent compared to Ref. 4 ([1]; ratio of IC50, compare table 1) |
| --- | --- | --- | --- | --- | --- |
| CCNC(=O)C(=O)CC[C@H](NC(=O)c1nc(Cl)sc1Cl)C(=O)Nc1cccn(CC(=O)NC2C3CC4CC(C3)CC2C4)c1=O (stereo partly drawn) [Compound I-48, (S)-2-(2,5-dichlorothiazole-4-carboxamido)-N6-ethyl-N1-(1-(2-(2-adamantylamino)-2-oxoethyl)-2-oxo-1,2-dihydropyridin-3-yl)-5-oxohexanediamide] | 150 to 600 | 1 to 10 | 1 to 3 |  |  |
| CCOC(=O)/C=C/CC[C@H](NC(=O)c1cccnc1)C(=O)Nc1ccc(C)n(CC(=O)NCCc2ccccc2)c1=O [Ref. 3, reference compound] | 3500 to 10000 | < 1 | 1 to 3 | 4270 |  |
| CCNC(=O)C(=O)CC[C@H](NC(=O)[C@@H]1CCCNC1)C(=O)Nc1cccn(CC(=O)NC2C3CC4CC2CC(Br)(C4)C3)c1=O (stereo partly drawn) [Compound I-61, (S)-N1-ethyl-N6-(1-(2-(5-bromoadamantane-2-amino)-2-oxoethyl)-2-oxo-1,2-dihydropyridin-3-yl)-2-oxo-5-((R)-piperidine-3-carboxamido)hexanediamide] | 150 to 600 | < 1 | 1 to 3 |  |  |
| CCNC(=O)C(=O)CC[C@H](NC(=O)c1cnsn1)C(=O)Nc1cccn(CC23CC4CC(CC(Br)(C4)C2)C3)c1=O [Compound I-83, (S)-N1-(1-((3-bromo-1-adamantyl)methyl)-2-oxo-1,2-dihydropyridin-3-yl)-N6-ethyl-5-oxo-2-(1,2,5-thiadiazole-3-carboxamido)hexanediamide] | 150 to 600 | < 1 | 3 to 5 |  |  |
| CCC(CC)CNC(=O)Cn1cccc(NC(=O)[C@H](CCC(=O)C(=O)NC)NC(=O)c2cncn2C)c1=O [Ref. 1, reference compound] | 600 to 3500 | < 1 | < 1 |  | about 15 fold |
| CCNC(=O)C(=O)CC[C@H](NC(=O)c1cnc(C(C)C)o1)C(=O)Nc1cccn(CC(=O)NC23CCC(C2)C3)c1=O [Compound I-90, (S)-N1-(1-(2-(bicyclo[2.1.1]hexan-1-ylamino)-2-oxoethyl)-2-oxo-1,2-dihydropyridin-3-yl)-N6-ethyl-2-(2-isopropyloxazole-5-carboxamido)-5-oxohexanediamide] | < 150 | 1 to 10 | < 1 |  |  |
| CCNC(=O)C(=O)CC[C@H](NC(=O)c1cnc(NC(C)=O)s1)C(=O)Nc1cccn(CC(=O)NC23CC(C2)C3)c1=O [Compound I-110, (S)-2-(2-acetamidothiazole-5-carboxamido)-N1-(1-(2-(bicyclo[1.1.1]pentan-1-ylamino)-2-oxoethyl)-2-oxo-1,2-dihydropyridin-3-yl)-N6-ethyl-5-oxohexanediamide] | 600 to 3500 | < 1 | < 1 |  |  |
| CCNC(=O)C(=O)CC[C@H](NC(=O)c1c(C)ncn1C)C(=O)Nc1cccn(CC(=O)NC23CC4CC(CC(CC)(C4)C2)C3)c1=O [Compound I-17, (S)-2-(1,4-dimethyl-1H-imidazole-5-carboxamido)-N6-ethyl-N1-(1-(2-(3-ethyladamantane-1-amino)-2-oxoethyl)-2-oxo-1,2-dihydropyridin-3-yl)-5-oxohexanediamide] | 600 to 3500 | < 1 | 1 to 3 |  |  |
| CCNC(=O)C(=O)CC[C@H](NC(=O)c1nccn1C)C(=O)Nc1cccn(CC(=O)NC23CC4CC(C)(CC(C)(C4)C2)C3)c1=O [Compound I-23, (S)-N1-ethyl-N6-(1-(2-(3,5-dimethyladamantane-1-amino)-2-oxoethyl)-2-oxo-1,2-dihydropyridin-3-yl)-5-(1-methyl-1H-imidazole-2-carboxamido)-2-oxohexanediamide] | 600 to 3500 | < 1 | 1 to 3 |  |  |
| CCNC(=O)C(=O)CC[C@H](NC(=O)c1cn(C)cn1)C(=O)Nc1cccn(CC(=O)NC23CC4CC(CC(CC)(C4)C2)C3)c1=O [Compound I-15, (S)-N1-ethyl-N6-(1-(2-(3-ethyladamantane-1-amino)-2-oxoethyl)-2-oxo-1,2-dihydropyridin-3-yl)-5-(1-methyl-1H-imidazole-4-carboxamido)-2-oxohexanediamide] | 600 to 3500 | < 1 | 1 to 3 |  |  |
